Results reported in PMC7024302, “Ultrashort Cationic Lipopeptides–Effect of N-Terminal Amino Acid and Fatty Acid Type on Antimicrobial Activity and Hemolysis” (Molecules, 2020).
≈ marks a conversion by molar mass, not a printed value. Residues, ends and D or L forms follow the SMILES beside them.

Columns and labels:
[1] = Determination of peptide hydrophobicity with RP-HPLC (adjusted retention time); type: physicochemical; conditions: for tR’ (adjusted retention time): Table 1 and b9, measure of hydrophobicity, RP-HPLC, Phenomenex Luna C18(2) 3.0 × 100 mm, 5 µm, linear 10–55% acetonitrile in water over 60 min, 0.5 mL/min, peptide 1 g/L; for tR’ (adjusted retention time) / Adjusted retention time / tR’: 0.1% TFA, 25.0 °C, UV 214 nm, triplicate; for ∆tR: tR’ of the lipopeptide minus tR’ of C10-RR-NH2 or C12-RR-NH2, same RP-HPLC conditions; for Adjusted retention time: Table 2, nC = carbon atoms in fatty acid chain; for Adjusted retention time / tR’: RP-HPLC C18, linear 10–55% acetonitrile over 60 min; for tR’: Table 3, adjusted retention time as hydrophobicity
Description: To determine peptide hydrophobicity, the Waters Alliance e2695 system with a Waters 2998 PDA Detector (software-Empower®3) was used. All analyses were carried out on a Phenomenex Luna C18(2) column (3.0 × 100 mm, 5 µm particle size, 100 Å pore size). The peptides were dissolved in water (0.1% TFA, v/v) to obtain a concentration of 1 g/L. UV detection at 214 nm was used, and aliquots (10 µL) were eluted with a linear 10–55% acetonitrile gradient in deionized water over 60 min at 25.0 ± 0.1 °C. The mobile phase flow rate was 0.5 mL/min. Both eluents contained 0.1% (v/v) of TFA. Each peptide sample was analyzed in triplicate.

[2] = system: S. aureus ATCC 25923; type: cell-based, Staphylococcus aureus; conditions: ATCC 25923, 18 h
Description: (§1) The Acinetobacter baumannii ATCC BAA-1605, Candida albicans ATCC 10231, Enterococcus faecium ATCC 700221, Klebsiella aerogenes ATCC 13048 (previously known as Enterobacter aerogenes), Klebsiella pneumoniae ATCC 700603, Pseudomonas aeruginosa ATCC 9027, Staphylococcus aureus ATCC 25923 and MRSA ATCC 33591, were acquired from the American Type Culture Collection (ATCC). Before running the tests, beads with cryo-protected microorganisms were transferred into fresh MHB (BioMaxima, Lublin, Poland) for bacteria or RPMI-1640 for fungi and incubated for 24 h at 37 °C. Then, the culture was seeded on the Mueller-Hinton agar (MHA) plates (BioMaxima, Lublin, Poland) for bacteria or Sabouraud dextrose agar (SDA) plates (BioMaxima, Lublin, Poland) for fungi and incubated as just mentioned. Cell densities for all assays were adjusted spectrophotometrically (Multiskan™ GO Microplate Spectrophotometer, Thermo Fisher Scientific, Vantaa, Finland) at 600 nm for bacteria and at 530 nm for fungi.
(§2) The MICs were determined by broth microdilution method according to the Clinical and Laboratory Standard Institute guidelines. For this purpose initial inoculums of bacteria (5 × 10^5 CFU/mL) in MHB (BioMaxima, Lublin, Poland) and fungi (2 × 10^3 CFU/mL) in RPMI-1640 with 2% D-glucose (Merck, Darmstadt, Germany) prepared with MOPS (pH 7.0 ± 0.1 at 25 °C; Merck, Darmstadt, Germany) were exposed to the ranging concentration of lipopeptides (0.5–256 µg/mL) and incubated at 37 °C for 18 h and 24 h respectively. The experiments were conducted on 96-well microtiter polystyrene plates (Kartell, Italy). The MIC was taken as the lowest peptide concentration at which a noticeable growth of microorganisms was inhibited. All experiments were conducted in triplicate.

[3] = system: S. aureus ATCC 33591 (MRSA); type: cell-based, Staphylococcus aureus; conditions: ATCC 33591, 18 h
Description: as §1, §2

[4] = system: P. aeruginosa ATCC 9027; type: cell-based, Pseudomonas aeruginosa; conditions: ATCC 9027, 18 h
Description: as §1, §2

[5] = system: C. albicans ATCC 10231; type: cell-based, Candida albicans; conditions: ATCC 10231, 24 h, pH 7
Description: as §1, §2

[6] = system: human red blood cells (hRBCs); type: cell-based; conditions: red cells of human, 1 h
Description: The hemolysis assay was performed as described earlier according to the method of Avrahami and Shai. Fresh human red blood cells (hRBCs) with anticoagulant (EDTA) were rinsed three times with a PBS (Merck, Darmstadt, Germany) by centrifugation at 800× g for 10 min and resuspended in PBS. Lipopeptides were serially diluted on 96-well microtiter polystyrene plate and hRBCs were added to reach final volume of 100 µL. Peptide concentration ranged between 0.5 and 256 µg/mL and final hRBCs concentration was 4% (v/v). Controls for zero hemolysis (blank) and 100% hemolysis consisted of hRBCs suspended in PBS and 1% of Triton-X 100 (Merck, Darmstadt, Germany), respectively. The plate was incubated for 1 h at 37 °C and then centrifuged (800× g, 10 min, 4 °C). Subsequently, supernatant was […] to new microtiter plates and absorbance at 540 nm were measured. All experiments were conducted in triplicate. Protocol of the study received approval from the local Bioethics Committee at the Medical University of Gdańsk (NKBBN/262/2019).

[7] = system: E. faecium ATCC 700221; type: cell-based, Enterococcus faecium; conditions: ATCC 700221, 18 h
Description: as §1, §2

[8] = system: K. pneumoniae ATCC 700603; type: cell-based, Klebsiella pneumoniae; conditions: ATCC 700603, 18 h
Description: as §1, §2

[9] = system: A. baumannii ATCC BAA-1605; type: cell-based, Acinetobacter baumannii; conditions: ATCC BAA-1605, 18 h
Description: as §1, §2

[10] = system: K. aerogenes ATCC 13048; type: cell-based, Klebsiella aerogenes; conditions: ATCC 13048, 18 h
Description: as §1, §2

SMILES | tR’ (adjusted retention time) [1] [min] | tR’ [1] [min] | MIC SA [2] [µg/mL] | MIC PA [4] [µg/mL] | MIC CA [5] [µg/mL] | HC50 [6] | also measured
CCCCCCCCCC(=O)N[C@@H](CCCNC(=N)N)C(=O)N[C@@H](CCCNC(=N)N)C(=O)N[C@@H](Cc1ccccc1)C(N)=O [compound 108, C10-RRF-NH2] (HELM PEPTIDE1{[CCCCCCCCCC(=O)[*:2]].R.R.F.[am]}$$$$V2.0) | 31.07 | – | – | – | – | – | ∆tR [1]: 6.77 min
CCCCCCCCCCCCCC(=O)N[C@H](C(=O)N[C@@H](CCCNC(=N)N)C(=O)N[C@@H](CCCNC(=N)N)C(N)=O)[C@@H](C)CC [compound 38, C14-IRR-NH2] (HELM PEPTIDE1{[CCCCCCCCCCCCCC(=O)[*:2]].I.R.R.[am]}$$$$V2.0) | – | 45.65 | 4 (≈ 6.13 µM) | 4 (≈ 6.13 µM) | 4 (≈ 6.13 µM) | 78.92 (±4.38) µg/mL | Adjusted retention time [1]: 45.650 min; MIC S [3]: 4 µg/mL (≈ 6.13 µM); MIC E1 [7]: 4 µg/mL (≈ 6.13 µM); MIC K [8]: 64 µg/mL (≈ 98 µM); MIC A [9]: 64 µg/mL (≈ 98 µM); MIC E2 [10]: 64 µg/mL (≈ 98 µM)
CCCCCCCCCCCCCC(=O)N[C@@H](CCS(C)(=O)=O)C(=O)N[C@@H](CCCNC(=N)N)C(=O)N[C@@H](CCCNC(=N)N)C(N)=O [compound 58, C14-M(O2)RR-NH2] (HELM PEPTIDE1{[CCCCCCCCCCCCCC(=O)[*:2]].[CS(=O)(=O)CC[C@H](N[*:1])C(=O)[*:2]].R.R.[am]}$$$$V2.0) | – | 41.17 | 16 (≈ 22.8 µM) | 32 (≈ 45.5 µM) | 16 (≈ 22.8 µM) | 70.11 (±2.93) µg/mL | MIC S [3]: 16 µg/mL (≈ 22.8 µM); MIC E1 [7]: 8 µg/mL (≈ 11.4 µM); MIC K [8]: 256 µg/mL (≈ 364 µM); MIC A [9]: 32 µg/mL (≈ 45.5 µM); MIC E2 [10]: 256 µg/mL (≈ 364 µM)
CCCCCCCCCCCC(=O)N1CCC[C@H]1C(=O)N[C@@H](CCCNC(=N)N)C(=O)N[C@@H](CCCNC(=N)N)C(N)=O [compound 73, C12-PRR-NH2] | – | 35.82 | 32 (≈ 52.6 µM) | 64 (≈ 105 µM) | 64 (≈ 105 µM) | >256 µg/mL | –
CCCCCCCCCC(=O)N[C@@H](CCCNC(=N)N)C(=O)N[C@@H](CCCNC(=N)N)C(N)=O [compound 2, C10-RR-NH2, reference compound] (HELM PEPTIDE1{[CCCCCCCCCC(=O)[*:2]].R.R.[am]}$$$$V2.0) | 24.30 | 24.30 | – | – | – | – | –
CCCCCCCCCCCC(=O)NCC(=O)N[C@@H](CCCNC(=N)N)C(=O)N[C@@H](CCCNC(=N)N)C(N)=O [compound 29, C12-GRR-NH2] | – | 33.20 | 32 (≈ 56.3 µM) | 128 (≈ 225 µM) | 64 (≈ 113 µM) | >256 µg/mL | –
CCCCCCCCCCCC(=O)N[C@H](C(=O)N[C@@H](CCCNC(=N)N)C(=O)N[C@@H](CCCNC(=N)N)C(N)=O)[C@@H](C)O [compound 89, C12-TRR-NH2] (HELM PEPTIDE1{[CCCCCCCCCCCC(=O)[*:2]].T.R.R.[am]}$$$$V2.0) | – | 33.82 | 32 (≈ 52.2 µM) | 128 (≈ 209 µM) | 64 (≈ 104 µM) | >256 µg/mL | –
CCCCCCCCCCCCCC(=O)N[C@@H](CCC(=O)O)C(=O)N[C@@H](CCCNC(=N)N)C(=O)N[C@@H](CCCNC(=N)N)C(N)=O [compound 22, C14-ERR-NH2] (HELM PEPTIDE1{[CCCCCCCCCCCCCC(=O)[*:2]].E.R.R.[am]}$$$$V2.0) | – | 40.17 | 64 (≈ 95.7 µM) | 128 (≈ 191 µM) | 32 (≈ 47.8 µM) | 59.51 (±4.00) µg/mL | –
CCCCCCCCCCCCCC(=O)N[C@@H](CC(=O)O)C(=O)N[C@@H](CCCNC(=N)N)C(=O)N[C@@H](CCCNC(=N)N)C(N)=O [compound 18, C14-DRR-NH2] (HELM PEPTIDE1{[CCCCCCCCCCCCCC(=O)[*:2]].D.R.R.[am]}$$$$V2.0) | – | 40.25 | 64 (≈ 97.7 µM) | 128 (≈ 195 µM) | 32 (≈ 48.9 µM) | 49.95 (±1.00) µg/mL | –
CCCCCCCCCC(=O)N[C@@H](CCCNC(=N)N)C(=O)N[C@@H](Cc1ccccc1)C(=O)N[C@@H](CCCNC(=N)N)C(N)=O [compound 106, C10-RFR-NH2] (HELM PEPTIDE1{[CCCCCCCCCC(=O)[*:2]].R.F.R.[am]}$$$$V2.0) | 31.44 | – | – | – | – | – | ∆tR [1]: 7.14 min
CCCCCCCC(=O)N[C@@H](CCCNC(=N)N)C(=O)N[C@@H](CCCNC(=N)N)C(N)=O [compound 1, C8-RR-NH2, reference compound] (HELM PEPTIDE1{[CCCCCCCC(=O)[*:2]].R.R.[am]}$$$$V2.0) | – | 14.46 | – | – | – | – | –
CCCCCCCCCCCC(=O)N[C@@H](CCCNC(=N)N)C(=O)N[C@@H](Cc1ccccc1)C(=O)N[C@@H](CCCNC(=N)N)C(N)=O [compound 107, C12-RFR-NH2] (HELM PEPTIDE1{[CCCCCCCCCCCC(=O)[*:2]].R.F.R.[am]}$$$$V2.0) | 38.67 | – | – | – | – | – | ∆tR [1]: 6.09 min
CCCCCCCCC(CCCCCC)C(=O)N[C@@H](CCCNC(=N)N)C(=O)N[C@@H](CCCNC(=N)N)C(N)=O (stereo partly drawn) [compound 105, C10(6)-RR-NH2] | – | – | 4 (≈ 7.04 µM) | 8 (≈ 14.1 µM) | 16 (≈ 28.2 µM) | 200.25 (±16.07) µg/mL | MIC S [3]: 4 µg/mL (≈ 7.04 µM); MIC E1 [7]: 8 µg/mL (≈ 14.1 µM); MIC K [8]: >256 (-) µg/mL; MIC A [9]: 256 µg/mL (≈ 451 µM); MIC E2 [10]: >256 (-) µg/mL
CCCCCCCCCCCC(=O)N[C@@H](CCCNC(=N)N)C(=O)N[C@@H](CCCNC(=N)N)C(=O)N[C@@H](Cc1ccccc1)C(N)=O [compound 109, C12-RRF-NH2] (HELM PEPTIDE1{[CCCCCCCCCCCC(=O)[*:2]].R.R.F.[am]}$$$$V2.0) | 38.02 | – | – | – | – | – | ∆tR [1]: 5.44 min
CCCCCCCCCC(=O)N[C@@H](CCCC)C(=O)N[C@@H](CCCNC(=N)N)C(=O)N[C@@H](CCCNC(=N)N)C(N)=O [compound 64, C10-NleRR-NH2] (HELM PEPTIDE1{[CCCCCCCCCC(=O)[*:2]].[Nle].R.R.[am]}$$$$V2.0) | – | – | 32 (≈ 53.6 µM) | 64 (≈ 107 µM) | 64 (≈ 107 µM) | >256 µg/mL | Adjusted retention time [1]: 33.155 min
CCCCCCCC(=O)N[C@@H](CCCC)C(=O)N[C@@H](CCCNC(=N)N)C(=O)N[C@@H](CCCNC(=N)N)C(N)=O [compound 63, C8-NleRR-NH2] (HELM PEPTIDE1{[CCCCCCCC(=O)[*:2]].[Nle].R.R.[am]}$$$$V2.0) | – | – | – | – | – | – | Adjusted retention time [1]: 25.429 min
